Laboratory results: patent publication US9708312B2, “Dihydropyrimidinoisoquinolinones and pharmaceutical compositions thereof for the treatment of inflammatory disorders (GPR84 antagonists)” (GALAPAGOS NV, priority 2012, dated 2017)
pIC50: −log10 of the molar value.

Molecular target: T1, GPR84 (Homo sapiens, UniProt Q9NQS5)
T1 construct: expressed in transfected cells
Test: GPR84 [35S]GTPγS binding assay, HEPES buffer
Format: biochemical
Conditions: 3,3′ di indolylmethane at EC80, membranes from stable cell line over expressing GPR84
Protocol: 1.1. Cell Based Assay: GTp-γ S Binding Assay.
The following assay can be used for determination of GPR84 activation.
The assay is performed in a 96 well plate where the following reagents are added. […] In a last step, 30 μL of a mixture consisting of membranes-GTPγS-SpA beads is added [mixture consists of 20 μg/well membranes derived from stable cell line over expressing GPR84 (membranes are pre-incubated with 0.1 μM GDP for 15 min at 4° C.), 0.1 nM [^35S]GTPγS (Perkin Elmer, NEG030) and 0.5 mg/well PVT-WGA SpA beads (Perkin Elmer, RPNQ0001)]. All components are diluted in assay buffer containing 20 mM HEPES pH 7.4; 5 mM MgCl2; 250 mM NaCl; 0.05% BSA; 75 ug/mL saponin Reactions are incubated for 90 min at room temperature followed by centrifugation at 2000 rpm during 15 min. Plates are read on a Topcount reader (Perkin Elmer) immediately after centrifugation (readout time, 1 min/well).

T1 sequence (Q9NQS5 whole entry): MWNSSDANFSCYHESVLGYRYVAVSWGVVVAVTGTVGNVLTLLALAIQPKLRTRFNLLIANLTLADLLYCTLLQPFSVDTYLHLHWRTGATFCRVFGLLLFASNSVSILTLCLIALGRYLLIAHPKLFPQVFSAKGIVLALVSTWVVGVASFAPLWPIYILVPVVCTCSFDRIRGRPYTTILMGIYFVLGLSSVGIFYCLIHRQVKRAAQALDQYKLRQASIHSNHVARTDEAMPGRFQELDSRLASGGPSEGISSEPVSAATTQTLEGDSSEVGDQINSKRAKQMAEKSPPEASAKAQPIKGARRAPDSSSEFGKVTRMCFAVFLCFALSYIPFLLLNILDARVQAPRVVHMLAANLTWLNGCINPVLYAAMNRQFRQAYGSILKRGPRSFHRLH

Row | pIC50 | SMILES
1 | 6.00 to 6.30 | CNCC#Cc1ccc2c(c1)CCn1c-2cc(OCC2COc3ncccc3O2)nc1=O (stereo not drawn) [compound 171, 2-(2,3-dihydro-[1,4]dioxino[2,3-b]pyridin-2-ylmethoxy)-9-(3-methylamino-prop-1-ynyl)-6,7-dihydro-pyrimido[6,1-a]isoquinolin-4-one]
2 | 7.00 to 11.00 | COc1nccc(-c2ccc3c(c2)CCn2c-3cc(OCC3COc4ncccc4O3)nc2=O)c1Cl (stereo not drawn) [compound 160, 9-(3-chloro-2-methoxy-pyridin-4-yl)-2-(2,3-dihydro-[1,4]dioxino[2,3-b]pyridin-2-ylmethoxy)-6,7-dihydro-pyrimido[6,1-a]isoquinolin-4-one]
3 | 6.30 to 7.00 | O=c1nc(OCC2COc3ncccc3O2)cc2n1CCc1cc(C#CCN3CCS(=O)(=O)CC3)ccc1-2 (stereo not drawn) [compound 174, 2-(2,3-dihydro-[1,4]dioxino[2,3-b]pyridin-2-ylmethoxy)-9-[3-(1,1-dioxo-thiomorpholin-4-yl)-prop-1-ynyl]-6,7-dihydro-pyrimido[6,1-a]isoquinolin-4-one]
4 | 7.00 to 11.00 | COc1cncc(-c2ccc3c(c2)CCn2c-3cc(OCC3COc4ncccc4O3)nc2=O)c1 (stereo not drawn) [compound 140, 2-(2,3-dihydro-[1,4]dioxino[2,3-b]pyridin-2-ylmethoxy)-9-(5-methoxy-pyridin-3-yl)-6,7-dihydro-pyrimido[6,1-a]isoquinolin-4-one]
5 | 7.00 to 11.00 | CCc1nc(COc2ccc3c(c2)CCn2c-3cc(OCC3COc4ncccc4O3)nc2=O)no1 (stereo not drawn) [compound 155, 2-(2,3-dihydro-[1,4]dioxino[2,3-b]pyridin-2-ylmethoxy)-9-(5-ethyl-[1,2,4]oxadiazol-3-ylmethoxy)-6,7-dihydro-pyrimido[6,1-a]isoquinolin-4-one]
6 | 6.30 to 7.00 | CCCCNCC#Cc1ccc2c(c1)CCn1c-2cc(OCC2COc3ncccc3O2)nc1=O (stereo not drawn) [compound 191, 9-(3-butylamino-prop-1-ynyl)-2-(2,3-dihydro-[1,4]dioxino[2,3-b]pyridin-2-ylmethoxy)-6,7-dihydro-pyrimido[6,1-a]isoquinolin-4-one]
7 | 7.00 to 11.00 | CCOc1ncccc1-c1ccc2c(c1)CCn1c-2cc(OCC2COc3ncccc3O2)nc1=O (stereo not drawn) [compound 163, 2-(2,3-dihydro-[1,4]dioxino[2,3-b]pyridin-2-ylmethoxy)-9-(2-ethoxy-pyridin-3-yl)-6,7-dihydro-pyrimido[6,1-a]isoquinolin-4-one]
8 | 7.00 to 11.00 | O=c1nc(OCC2COc3ncccc3O2)cc2n1CCc1cc(-c3ccoc3)ccc1-2 (stereo not drawn) [compound 148, 2-(2,3-dihydro-[1,4]dioxino[2,3-b]pyridin-2-ylmethoxy)-9-furan-3-yl-6,7-dihydro-pyrimido[6,1-a]isoquinolin-4-one]
9 | 7.00 to 11.00 | COc1ccc(OC)c(-c2ccc3c(c2)CCn2c-3cc(OCC3COc4ncccc4O3)nc2=O)c1 (stereo not drawn) [compound 168, 2-(2,3-dihydro-[1,4]dioxino[2,3-b]pyridin-2-ylmethoxy)-9-(2,5-dimethoxy-phenyl)-6,7-dihydro-pyrimido[6,1-a]isoquinolin-4-one]
10 | 7.00 to 11.00 | O=c1nc(OCC2COc3ncccc3O2)cc2n1CCc1cc(NCc3ncco3)ccc1-2 (stereo not drawn) [compound 153, 2-(2,3-dihydro-[1,4]dioxino[2,3-b]pyridin-2-ylmethoxy)-9-[(oxazol-2-ylmethyl)-amino]-6,7-dihydro-pyrimido[6,1-a]isoquinolin-4-one]
11 | 7.00 to 11.00 | N#CCCOCC#Cc1ccc2c(c1)CCn1c-2cc(OCC2COc3ncccc3O2)nc1=O (stereo not drawn) [compound 170, 3-{3-[2-(2,3-dihydro-[1,4]dioxino[2,3-b]pyridin-2-ylmethoxy)-4-oxo-6,7-dihydro-4H-pyrimido[6,1-a]isoquinolin-9-yl]-prop-2-ynyloxy}-propionitrile]
12 | 6.30 to 7.00 | O=C1CN(CC#Cc2ccc3c(c2)CCn2c-3cc(OCC3COc4ncccc4O3)nc2=O)C(=O)N1 (stereo not drawn) [compound 176, 1-{3-[2-(2,3-Dihydro-[1,4]dioxino[2,3-b]pyridin-2-ylmethoxy)-4-oxo-6,7-dihydro-4H-pyrimido[6,1-a]isoquinolin-9-yl]-prop-2-ynyl}-imidazolidine-2,4-dione]
13 | 7.00 to 11.00 | CC(C)(Oc1ccc2c(c1)CCn1c-2cc(OCC2COc3ccccc3O2)nc1=O)C(N)=O (stereo not drawn) [compound 49, 2-[2-(2,3-dihydro-benzo[1,4]dioxin-2-ylmethoxy)-4-oxo-6,7-dihydro-4H-pyrimido[6,1-a]isoquinolin-9-yloxy]-2-methyl-propionamide]
14 | 7.00 to 11.00 | O=c1nc(OCC2COc3ncccc3O2)cc2n1CCc1cc(OCC3CCCCO3)ccc1-2 (stereo not drawn) [compound 179, 2-(2,3-dihydro-[1,4]dioxino[2,3-b]pyridin-2-ylmethoxy)-9-(tetrahydro-pyran-2-ylmethoxy)-6,7-dihydro-pyrimido[6,1-a]isoquinolin-4-one]
15 | 6.30 to 7.00 | N#Cc1ccc2c(c1)CCn1c-2cc(OCC2COc3ncccc3O2)nc1=O (stereo not drawn) [compound 152, 2-(2,3-dihydro-[1,4]dioxino[2,3-b]pyridin-2-ylmethoxy)-4-oxo-6,7-dihydro-4H-pyrimido[6,1-a]isoquinoline-9-carbonitrile]
16 | 7.00 to 11.00 | COc1cccc(-c2ccc3c(c2)CCn2c-3cc(OCC3COc4ncccc4O3)nc2=O)c1OC (stereo not drawn) [compound 167, 2-(2,3-dihydro-[1,4]dioxino[2,3-b]pyridin-2-ylmethoxy)-9-(2,3-dimethoxy-phenyl)-6,7-dihydro-pyrimido[6,1-a]isoquinolin-4-one]

The next lines start with the compound.

Row | SMILES | pIC50
17 | CC(C)(Oc1ccc2c(c1)CCn1c-2cc(OCC2COc3ccccc3O2)nc1=O)C(=O)N1CCOCC1 (stereo not drawn) [compound 50, 2-(2,3-dihydro-benzo[1,4]dioxin-2-ylmethoxy)-9-(1,1-dimethyl-2-morpholin-4-yl-2-oxo-ethoxy)-6,7-dihydro-pyrimido[6,1-a]isoquinolin-4-one] | 6.00 to 6.30
18 | O=c1nc(OCC2CCCO2)cc2n1CCc1cc(OCCc3ccccc3)ccc1-2 (stereo not drawn) [compound 12, 9-phenethyloxy-2-(tetrahydro-furan-2-ylmethoxy)-6,7-dihydro-pyrimido[6,1-a]isoquinolin-4-one] | 6.30 to 7.00
19 | O=c1nc(OCC2CCCO2)cc2n1CCc1cc(OCc3ccc(Cl)cc3)ccc1-2 (stereo not drawn) [compound 21, 9-(4-chloro-benzyloxy)-2-(tetrahydro-furan-2-ylmethoxy)-6,7-dihydro-pyrimido[6,1-a]isoquinolin-4-one] | 7.00 to 11.00
20 | CCCn1nnnc1COc1ccc2c(c1)CCn1c-2cc(OCC2COc3ccccc3O2)nc1=O (stereo not drawn) [compound 69, 2-(2,3-dihydro-benzo[1,4]dioxin-2-ylmethoxy)-9-(1-propyl-1H-tetrazol-5-ylmethoxy)-6,7-dihydro-pyrimido[6,1-a]isoquinolin-4-one] | 7.00 to 11.00
21 | O=c1nc(OCC2CCCO2)cc2n1CCc1cc(OCc3ccccn3)ccc1-2 (stereo not drawn) [compound 14, 9-(pyridin-2-ylmethoxy)-2-(tetrahydro-furan-2-ylmethoxy)-6,7-dihydro-pyrimido[6,1-a]isoquinolin-4-one] | 6.30 to 7.00
22 | NC(=O)c1ccc(-c2ccc3c(c2)CCn2c-3cc(OCC3CCCO3)nc2=O)cc1 (stereo not drawn) [compound 106, 4-[4-oxo-2-(tetrahydro-furan-2-ylmethoxy)-6,7-dihydro-4H-pyrimido[6,1-a]isoquinolin-9-yl]-benzamide] | 6.30 to 7.00
23 | CCCCOc1ccc2c(c1)CCn1c-2cc(OCC2CCCO2)nc1=O (stereo not drawn) [compound 10, 9-butoxy-2-(tetrahydro-furan-2-ylmethoxy)-6,7-dihydro-pyrimido[6,1-a]isoquinolin-4-one] | 6.30 to 7.00
24 | O=c1nc(OCC2CCCO2)cc2n1CCc1cc(OCc3nnnn3C3CC3)ccc1-2 (stereo not drawn) [compound 58, 9-(1-cyclopropyl-1H-tetrazol-5-ylmethoxy)-2-(tetrahydro-furan-2-ylmethoxy)-6,7-dihydro-pyrimido[6,1-a]isoquinolin-4-one] | 6.30 to 7.00
25 | CCN(CC)C(=O)COc1ccc2c(c1)CCn1c-2cc(OCC2COc3ccccc3O2)nc1=O (stereo not drawn) [compound 66, 2-[2-(2,3-dihydro-benzo[1,4]dioxin-2-ylmethoxy)-4-oxo-6,7-dihydro-4H-pyrimido[6,1-a]isoquinolin-9-yloxy]-N,N-diethyl-acetamide] | 6.30 to 7.00
26 | O=c1nc(OCC2COc3ccccc3O2)cc2n1CCc1cc(OCC3COc4ccccc4O3)ccc1-2 (stereo not drawn) [compound 30, 2,9-bis-(2,3-dihydro-benzo[1,4]dioxin-2-ylmethoxy)-6,7-dihydro-pyrimido[6,1-a]isoquinolin-4-one] | 7.00 to 11.00
27 | O=c1nc(OCC2CCCO2)cc2n1CCc1cc(OCCOc3ccc(Cl)cc3)ccc1-2 (stereo not drawn) [compound 45, 9-[2-(4-chloro-phenoxy)-ethoxy]-2-(tetrahydro-furan-2-ylmethoxy)-6,7-dihydro-pyrimido[6,1-a]isoquinolin-4-one] | 7.00 to 11.00
28 | O=c1nc(OCC2CCCO2)cc2n1CCc1cc(OCc3cccnc3)ccc1-2 (stereo not drawn) [compound 8, 9-(pyridin-3-ylmethoxy)-2-(tetrahydro-furan-2-ylmethoxy)-6,7-dihydro-pyrimido[6,1-a]isoquinolin-4-one] | 6.30 to 7.00
29 | Cc1ccccc1COc1ccc2c(c1)CCn1c-2cc(OCC2CCCO2)nc1=O (stereo not drawn) [compound 39, 9-(2-methyl-benzyloxy)-2-(tetrahydro-furan-2-ylmethoxy)-6,7-dihydro-pyrimido[6,1-a]isoquinolin-4-one] | 7.00 to 11.00
30 | CC(C)(C)c1nc(COc2ccc3c(c2)CCn2c-3cc(OCC3CCCO3)nc2=O)no1 (stereo not drawn) [compound 87, 9-(5-tert-butyl-[1,2,4]oxadiazol-3-ylmethoxy)-2-(tetrahydro-furan-2-ylmethoxy)-6,7-dihydro-pyrimido[6,1-a]isoquinolin-4-one] | 7.00 to 11.00
